Consider 10 molecules from publication PMC6147116 (Journal of Enzyme Inhibition and Medicinal Chemistry, 2018).

Broadly, the IC50 is the concentration at which inhibition is half-maximal.

One test concerns the target T1, steroid sulfatase (STS) (Homo sapiens, UniProt P08842).
T1 construct: from tissue; host or cells: human term placenta, microsomal fraction
T1 sequence (P08842 22-583): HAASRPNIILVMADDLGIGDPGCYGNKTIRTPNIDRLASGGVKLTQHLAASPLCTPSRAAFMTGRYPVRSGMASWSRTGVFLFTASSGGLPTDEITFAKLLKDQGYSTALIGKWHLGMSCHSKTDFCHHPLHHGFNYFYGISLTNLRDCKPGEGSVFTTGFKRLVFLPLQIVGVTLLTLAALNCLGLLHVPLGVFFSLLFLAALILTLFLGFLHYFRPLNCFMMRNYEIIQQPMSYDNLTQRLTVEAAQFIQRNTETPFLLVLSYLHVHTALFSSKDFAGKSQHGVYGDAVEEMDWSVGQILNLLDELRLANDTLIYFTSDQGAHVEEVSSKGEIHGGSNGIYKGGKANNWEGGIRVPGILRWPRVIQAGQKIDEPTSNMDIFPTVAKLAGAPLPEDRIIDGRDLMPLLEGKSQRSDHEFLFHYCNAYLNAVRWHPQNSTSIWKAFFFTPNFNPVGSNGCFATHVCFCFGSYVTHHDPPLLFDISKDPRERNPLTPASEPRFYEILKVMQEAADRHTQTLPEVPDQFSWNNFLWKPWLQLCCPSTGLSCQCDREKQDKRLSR
Put plainly: STS inhibition, in vitro radiosubstrate incubation (release of E1 from E1S), human placental microsomes; Dixon kinetic analysis. It counts as biochemical. The settings on record: for remaining activity at 10 µM: read-out: STS Rel.conv. ± SD. As for the experimental part: (§1) Enzyme inhibition studies were performed by in vitro radiosubstrate incubations using human term placenta cytosol and microsomas as enzyme sources. […] Relative conversions compared to non-inhibited controls (100%) were measured in the presence of 10 µM concentration of the test compound. […] Mechanistic and kinetic investigations were performed and inhibitory constants (Ki) were determined for selected compounds.
Kinetic analyses of selected compounds 7a and 16c were performed by measurement of enzyme activities using different fixed substrate concentrations and varied inhibitor concentrations.
(§2) Enzymatic incubations were carried out in the HEPES buffer medium at a final volume of 200
(§3) µl. The substrate was added to the incubate in 20 µl of a 25 v/v% propylene glycol in HEPES buffer solution, whereas test compounds were applied in 10 µl of dimethyl sulfoxide solution.
(§4) Incubations were performed at 37 °C and terminated by cooling and the addition of organic solvents of the subsequent extraction procedure. Control samples with no inhibitor and blank samples were incubated simultaneously. […]
The incubation time was 2.5 min. […]
(§5) In the general procedure, incubations were performed as described. Concentrations of the substrates were 1.0 µM, and the test compounds were applied at 10 µM final concentration in the incubate. Relative conversions compared to non-inhibited controls (100%) were determined. The assays were performed in triplicate, and the mean value and the standard deviation (SD) were calculated. […]
(§6) these cases, conversions were measured at 10–15 different concentrations in the appropriate interval between 0.001–50 µM. IC50 results were calculated by using unweighted iterative least squares logistic curve fitting by means of the “absolute IC50 calculation“ function of the GraphPad Prism 4.0 software (GraphPad Software, Inc., San Diego, CA, USA).
(§7) Kinetic analyses were performed via measurement of the enzymatic transformation using different fixed substrate concentrations and varied inhibitor concentrations. The Dixon’s linear transformation (1/velocity vs. inhibitor concentration) was applied for evaluation and the inhibition constant (Ki) was determined from abscissa of intersection of the lines of different substrate concentrations. Mechanism of binding was identified according to the Dixon’s graphs and the secondary plot of slopes of the Dixon’s lines vs. 1/substrate […]
The inhibitor compounds were preincubated with the appropriate placenta fraction in a volume of 4.0 µl at 37 °C for various time periods (2.5-40 min). Following this procedure, […]

The target in test [1] is T2, 17β-hydroxysteroid dehydrogenase type 1 (17β-HSD1) (Homo sapiens, UniProt P14061).
T2 sequence (P14061 1-328): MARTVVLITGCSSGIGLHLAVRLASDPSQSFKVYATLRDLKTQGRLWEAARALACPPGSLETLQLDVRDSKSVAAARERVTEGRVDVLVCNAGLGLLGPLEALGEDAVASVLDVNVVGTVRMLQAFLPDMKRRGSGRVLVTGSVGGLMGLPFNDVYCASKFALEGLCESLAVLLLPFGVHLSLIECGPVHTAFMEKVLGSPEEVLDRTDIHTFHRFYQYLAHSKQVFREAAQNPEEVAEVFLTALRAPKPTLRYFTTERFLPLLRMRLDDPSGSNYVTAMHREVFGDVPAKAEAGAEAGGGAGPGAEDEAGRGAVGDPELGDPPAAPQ
The test can be described thus: 17β-HSD1 inhibition, in vitro radiosubstrate incubation (E1 to E2), human placental cytosol; Dixon kinetic analysis. It counts as biochemical. The following applies: for IC50: E1 substrate 1.0 µM, NADPH excess. As for the experimental part:
as §1
Inhibitors that bind to the steroid site of 17β-HSD1 can bind to both the free enzyme and the binary enzyme–cofactor complex by random kinetic mechanism.
as §2, §3, §4
The incubation time was 2.5 min. The product 17β-estradiol (E2, 5) was extracted with ethyl acetate and isolated by a TLC method (details are published in our earlier reference).
as §5, §6, §7
The inhibitor compounds were preincubated with the appropriate placenta fraction in a volume of 4.0 µl at 37 °C for various time periods (2.5-40 min). Following this procedure, samples were diluted with the incubation medium to 50-fold. Enzyme activity measurements

The next test has as its target T3, human aromatase (Homo sapiens, UniProt P11511).
T3 construct: from tissue; host or cells: human term placenta, microsomal fraction
T3 sequence (P11511 1-503): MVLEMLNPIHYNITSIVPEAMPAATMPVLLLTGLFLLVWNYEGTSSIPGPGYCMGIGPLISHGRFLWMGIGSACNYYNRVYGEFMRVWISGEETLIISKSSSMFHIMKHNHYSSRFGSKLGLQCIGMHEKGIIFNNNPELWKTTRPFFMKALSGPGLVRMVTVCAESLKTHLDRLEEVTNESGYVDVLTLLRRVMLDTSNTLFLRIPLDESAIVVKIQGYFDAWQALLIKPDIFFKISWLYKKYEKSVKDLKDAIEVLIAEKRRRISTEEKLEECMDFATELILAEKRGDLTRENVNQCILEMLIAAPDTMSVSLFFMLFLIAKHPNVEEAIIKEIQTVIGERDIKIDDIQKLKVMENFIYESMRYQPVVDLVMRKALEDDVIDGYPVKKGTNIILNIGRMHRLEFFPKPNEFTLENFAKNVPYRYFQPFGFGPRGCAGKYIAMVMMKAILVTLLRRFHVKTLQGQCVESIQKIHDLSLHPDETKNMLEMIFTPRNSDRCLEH
Put plainly: Aromatase inhibition, in vitro radiosubstrate incubation (testosterone to E2 conversion), human placental microsomes. The following applies: for remaining activity at 10 µM: read-out: Arom Rel.conv. ± SD. It counts as biochemical. As for the experimental part:
as §1, §2, §3
Incubations were performed at 37 °C and terminated by cooling and the addition of organic solvents of the subsequent extraction procedure. Control samples with no inhibitor and blank samples were incubated simultaneously. The radioactivity of the products formed was measured by means of liquid scintillation counting (LSC) and taken as indicator of the […]
In the aromatase assays the microsoma suspension was incubated with appropriate concentration of unlabelled testosterone (2) substrate spiked with [1,2,6,7-3H]testosterone tracer, and in the presence of 0.1 mM NADPH cofactor excess. (In this case, solution of the substrate was prepared with acetonitrile instead of propylene glycol.) Incubation time was 40 min. The incubation mixture was extracted with toluene, then the toluene phase was drained and washed with HEPES buffer. Aromatase products containing phenolic hydroxy group were extracted with 1.2 M sodium hydroxide solution from the toluene extract and the alkaline phase was measured in the LSC. […]
was extracted with toluene. […]
as §5, §6
Kinetic analyses were performed via measurement of the enzymatic transformation using different fixed substrate concentrations and varied inhibitor concentrations. The Dixon’s linear transformation (1/velocity vs. inhibitor concentration) was applied for evaluation and the inhibition constant (Ki) was determined from abscissa of intersection of the lines of different substrate concentrations. Mechanism of binding was identified according to the […]

The target in test [2] is T2, 17β-hydroxysteroid dehydrogenase type 1 (17β-HSD1). The following applies: earlier paper of the authors; read-out: 17β-HSD1 IC50 ± SD; cited from earlier work.
The mark [3] stands for this setting: 10 µM test compound, non-inhibited control 100%, mean ± SD, n = 3.
Where [4] appears, read: E1S substrate 1.0 µM, read-out: STS IC50 ± SD.

Where two headings read alike, the source gives them in different places.

Take `C[C@]12CC[C@@H]3c4cc(I)c(O)cc4CC[C@H]3[C@@H]1CCC2=O` [6a, 2-Iodoestrone]: the figures for the remaining activity at 10 µM at steroid sulfatase (STS) (setting [3]) and on human aromatase (setting [3]) were 64 ± 3% and 66%, respectively. In addition, the IC50 was 0.064 ± 0.034 µM in test [1] (read-out: 17β-HSD1 IC50 ± SD) and more than 10 µM at human aromatase (testosterone substrate 1.0 µM, read-out: Arom IC50 ± SD).
Turning to `C[C@]12CC[C@@H]3c4ccc(O)c(Br)c4CC[C@H]3[C@@H]1CCC2=O` [7b, 4-bromoestrone], the IC50 on steroid sulfatase (STS) (setting [4]) amounted to 0.89 ± 0.3 µM; in test [1] (read-out: 17β-HSD1 IC50 ± SD), 0.3 ± 0.2 µM. In addition, at human aromatase (setting [3]), the remaining activity at 10 µM stood at 91 ± 6%.
For the molecule `C[C@]12CC[C@@H]3c4ccc(O)c(Cl)c4CC[C@H]3[C@@H]1CCC2=O` [7c], the IC50 against steroid sulfatase (STS) is 1.6 ± 0.3 µM; in test [1] (17β-HSD1 IC50 ± SD), 0.6 ± 0.16 µM. Further, the remaining activity at 10 µM at human aromatase amounted to 92 ± 3%.
As for `C[C@]12CC[C@@H]3c4cc(I)c(O)c(I)c4CC[C@H]3[C@@H]1CCC2=O` [8a], the remaining activity at 10 µM worked out at 80 ± 13% on steroid sulfatase (STS) (setting [3]) and 86 ± 6% at human aromatase (setting [3]). For the same molecule, in test [1] (setting [3]), the “17β-HSD1 Rel.conv. ± SD” value is 55 ± 7%.
As for `C[C@]12CC[C@@H]3c4cc(Br)c(O)c(Br)c4CC[C@H]3[C@@H]1CCC2=O` [8b], the IC50 at steroid sulfatase (STS) (setting [4]) was 2.1 ± 0.6 µM; in test [1] (read-out: 17β-HSD1 IC50 ± SD), 0.96 ± 0.45 µM. Further, the remaining activity at 10 µM at human aromatase (setting [3]) came to 81 ± 5%.
Regarding `C[C@]12CC[C@@H]3c4cc(Cl)c(O)c(Cl)c4CC[C@H]3[C@@H]1CCC2=O` [8c], the concentration for half-maximal inhibition (IC50) on steroid sulfatase (STS) stood at 3 ± 0.9 µM; in test [1] (17β-HSD1 IC50 ± SD), 0.59 ± 0.16 µM. Further, the remaining activity at 10 µM at human aromatase was found to be 82 ± 4%.
With `C[C@@]12CC[C@@H]3c4cc(I)c(O)cc4CC[C@H]3[C@@H]1CCC2=O` [10a], the remaining activity at 10 µM at steroid sulfatase (STS) (setting [3]) amounted to 83 ± 3%; at human aromatase (setting [3]) it was 82 ± 10%. Further, the IC50 in test [2] is 0.59 ± 0.23 µM.
Regarding `C[C@@]12CC[C@@H]3c4cc(Cl)c(O)cc4CC[C@H]3[C@@H]1CCC2=O` [10c], the remaining activity at 10 µM on steroid sulfatase (STS) (setting [3]) came to 57 ± 1%; on human aromatase (setting [3]), 106 ± 6%. For the same molecule, in test [1] (read-out: 17β-HSD1 IC50 ± SD), the IC50 is 0.33 ± 0.1 µM.
As for `C[C@@]12CC[C@@H]3c4ccc(O)c(Cl)c4CC[C@H]3[C@@H]1CCC2=O` [11c], the remaining activity at 10 µM at steroid sulfatase (STS) worked out at 80 ± 7%; at human aromatase, 98 ± 3%. This molecule also displayed an IC50 in test [1] (17β-HSD1 IC50 ± SD) of 2.6 ± 1 µM.
In the same order, the values of `C[C@@]12CC[C@@H]3c4cc(Cl)c(O)c(Cl)c4CC[C@H]3[C@@H]1CCC2=O` [12c] are 70 ± 3%, 101 ± 4% and 2.2 ± 0.6 µM.
